US9820967B2 (priority 2014, dated 2017)
Values joined by “and” are separate entries in the source; they are usually repeats but may differ in a detail not shown here. Equal values may be shown once. “Also recorded” adds a separate entry of the source. Read-outs that look alike come from different tables or passages of the source.

How the values were obtained:
[1] = test system: efflux pump (EPI functionality); experiment: EPI functionality assays of authentic standard; format: cell-based, Escherichia coli
Description: Moreover, this “halogenome” appeared to be dominated by brominated metabolites, with only some metabolites (<10) that were additionally chlorinated. […] Relative concentrations of halogenated compounds from clade IV appeared different even within members of the same species, indicative of intraspecies chemical diversity and further subclustering among isolates of the same species (A757, A754, A746, and B149), a phenomenon previously described for P. luteoviolacea strains. […] The presence of 2,3,4-tribromopyrrole was also determined (retention time 20.1 min, major ion m/z 301.7639), which was present in A757, A754, and A746, but not in B149. […]
(§1) To truly be considered an efflux pump inhibitor (EPI), the compound must increase the level of accumulation and decrease the level of extrusion of efflux pump substrates. The fluorescent DNA-binding dye Hoechst 33342 (H33342) a known substrate for RND pumps, is easily detected in the cell, can freely permeate the outer membrane, and can act as a reporter, all allowing for quantification of transport across living cells. Efflux-competent cells extrude H33342 and accumulate dye at a relatively slow rate, resulting in low levels of background fluorescence. Conversely, efflux-defective cells (e.g., presence of EPI) accumulate intracellular levels of H33342 at a higher rate, resulting in fluorescence retention. […]

[2] = target: H33342 efflux in E. coli AG100 (AcrAB-TolC) (Escherichia coli, UniProt P31224); experiment: Hoechst 33342 efflux assay, AG100; format: cell-based
Description: To truly be considered an efflux pump inhibitor (EPI), the compound must increase the level of accumulation and decrease the level of extrusion of efflux pump substrates. The fluorescent DNA-binding dye Hoechst 33342 (H33342) a known substrate for RND pumps, is easily detected in the cell, can freely permeate the outer membrane, and can act as a reporter, all allowing for quantification of transport across living cells. Efflux-competent cells extrude H33342 and accumulate dye at a relatively slow rate, resulting in low levels of background fluorescence. Conversely, efflux-defective cells (e.g., presence of EPI) accumulate intracellular levels of H33342 at a higher rate, resulting in fluorescence retention. Wild-type E. coli K-12 strain, AG100, and AG100A, the ΔacrAB mutant, a generous gift from Dr. M. Viveiros (Universidad Nova de Lisboa, Portugal), were used in accumulation and efflux assays. […] All experiments were performed in duplicate. Heat-inactivated bacteria were used as a positive control to assess maximal dye accumulation.

[3] = test system: murine lymphocytic leukemia cells; details: cited from earlier work
fungi = details: Tsukamoto et al. (2001); cited from earlier work
[4] = test system: E. coli strains overexpressing efflux pumps (AG102, MG1655 ΔBC/pABM, MG1655 ΔBC/pXYM; AcrAB-TolC, MexAB-OprM, MexXY-OprM); format: cell-based, Escherichia coli
Description: The checkerboard assay was used to determine whether 3,4-dibromopyrrole-2,5-dione potentiates the activity of two fluoroquinolones (ciprofloxacin (CIP) and levofloxacin (LEV)), an aminoglycoside (kanamycin (KAN)), a macrolide (erythromycin (ERY)), two β-lactams (oxacillin (OXA) and piperacillin (PIP)), tetracycline (TET), and chloramphenicol (CHL), known substrates for resistance nodulation cell division pump (RND) transporters, against test strains of multidrug resistant (MDR) E. coli. Interactions between 3,4-dibromopyrrole-2,5-dione and various antibiotics were classified based upon the fractional inhibitory concentration index (FICI), where a FIC of <0.5 is synergistic and indicative of the presence of an efflux pump inhibitor (EPI); 0.5-1 is indifferent; and >1 is antagonistic. […]
Bacterial susceptibility of extracts were tested in duplicate at 1 mg/mL and determined by rapid p-iodonitrotetrazolium chloride colorimetric assay in 96-well microtiter plates in a final volume of 200 μL as previously described (Kuete (2010), Antimicrob. Agents Chemother., 54, 1749-1752). […]
To assess the interaction between different classes of antibiotics and 3,4-dibromopyrrole-2,5-dione, standard checkerboard assays were performed in which the minimum inhibitory concentrations (MICs) of antibiotics were determined in the presence of different concentrations of 3,4-dibromopyrrole-2,5-dione. […]

[5] = test system: E. coli mutant AG100A (ΔacrAB), lacking the pump; format: cell-based, Escherichia coli; details: transporter deficient
Description: (§2) Upon entering the bacterial cell, H33342 becomes fluorescent once bound to the DNA minor groove.
as §1
(§3) For accumulation assays, in efflux-competent cells such as AG100, H33342 would be extruded resulting in low levels of background fluorescence, while the presence of a putative EPI would cause intracellular H33342 accumulation. […] Fluorescence values for wells containing media and compounds only were subtracted from those containing bacteria to control for any background fluorescence due to the presence of test compounds. […]

[6] = target: wild-type E. coli AG100 expressing the AcrAB-TolC pump (Escherichia coli, UniProt P31224); format: cell-based
Description: as §2, §1, §3

Sequence of wild-type E. coli AG100 expressing the AcrAB-TolC pump (P31224 whole entry): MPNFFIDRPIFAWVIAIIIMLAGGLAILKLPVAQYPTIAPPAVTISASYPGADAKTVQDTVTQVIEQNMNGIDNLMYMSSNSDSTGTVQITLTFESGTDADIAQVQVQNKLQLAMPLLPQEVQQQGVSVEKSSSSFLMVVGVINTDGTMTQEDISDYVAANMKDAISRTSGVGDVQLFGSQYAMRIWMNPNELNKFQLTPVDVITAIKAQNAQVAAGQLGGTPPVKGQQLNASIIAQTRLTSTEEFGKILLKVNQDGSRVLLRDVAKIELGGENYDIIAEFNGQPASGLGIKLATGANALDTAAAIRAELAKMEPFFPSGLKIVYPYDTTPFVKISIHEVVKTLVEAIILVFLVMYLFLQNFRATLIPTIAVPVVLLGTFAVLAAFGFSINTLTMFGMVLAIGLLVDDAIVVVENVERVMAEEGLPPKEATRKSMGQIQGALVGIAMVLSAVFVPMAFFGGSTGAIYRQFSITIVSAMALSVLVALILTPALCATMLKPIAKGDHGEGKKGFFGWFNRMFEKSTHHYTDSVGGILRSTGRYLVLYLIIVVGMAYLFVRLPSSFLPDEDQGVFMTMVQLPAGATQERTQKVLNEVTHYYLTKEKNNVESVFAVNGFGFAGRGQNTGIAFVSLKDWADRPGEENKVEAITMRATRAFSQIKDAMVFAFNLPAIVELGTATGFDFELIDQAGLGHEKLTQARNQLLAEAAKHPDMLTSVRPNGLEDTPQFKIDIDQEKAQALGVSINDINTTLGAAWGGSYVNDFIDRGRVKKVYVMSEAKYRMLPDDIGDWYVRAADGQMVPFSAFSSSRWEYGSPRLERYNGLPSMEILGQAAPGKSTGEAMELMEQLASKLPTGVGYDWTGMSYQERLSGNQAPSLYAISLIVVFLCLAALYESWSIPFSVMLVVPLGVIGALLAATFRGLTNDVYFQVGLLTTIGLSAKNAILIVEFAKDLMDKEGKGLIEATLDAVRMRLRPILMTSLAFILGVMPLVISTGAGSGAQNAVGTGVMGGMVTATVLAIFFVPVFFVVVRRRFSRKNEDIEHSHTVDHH
Sequence of wild-type E. coli AG100 expressing the AcrAB-TolC pump (P0AE06 25-397, further chain): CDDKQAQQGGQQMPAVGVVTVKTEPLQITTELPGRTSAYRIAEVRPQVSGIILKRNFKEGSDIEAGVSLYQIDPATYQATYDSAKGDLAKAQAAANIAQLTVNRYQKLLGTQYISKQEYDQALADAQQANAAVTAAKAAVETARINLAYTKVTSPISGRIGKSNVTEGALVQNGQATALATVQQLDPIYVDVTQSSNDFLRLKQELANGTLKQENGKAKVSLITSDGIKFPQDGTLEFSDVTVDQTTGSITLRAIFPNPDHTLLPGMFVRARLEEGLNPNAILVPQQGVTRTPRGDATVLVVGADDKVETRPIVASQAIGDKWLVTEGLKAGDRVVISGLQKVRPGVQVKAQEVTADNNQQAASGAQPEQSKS
Sequence of wild-type E. coli AG100 expressing the AcrAB-TolC pump (P02930 23-493, further chain): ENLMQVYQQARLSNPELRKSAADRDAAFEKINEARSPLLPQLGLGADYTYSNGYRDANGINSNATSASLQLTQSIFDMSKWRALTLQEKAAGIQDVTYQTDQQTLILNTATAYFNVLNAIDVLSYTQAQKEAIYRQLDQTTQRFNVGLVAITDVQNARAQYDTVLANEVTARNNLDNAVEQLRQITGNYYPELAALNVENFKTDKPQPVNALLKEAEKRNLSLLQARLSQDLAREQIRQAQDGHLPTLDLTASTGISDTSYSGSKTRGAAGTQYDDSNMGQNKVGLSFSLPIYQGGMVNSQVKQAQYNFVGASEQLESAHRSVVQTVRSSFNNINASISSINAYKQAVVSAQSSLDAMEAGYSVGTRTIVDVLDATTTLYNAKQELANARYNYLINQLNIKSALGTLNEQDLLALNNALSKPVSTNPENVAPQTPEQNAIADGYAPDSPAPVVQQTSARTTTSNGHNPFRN
Sequence of H33342 efflux in E. coli AG100 (AcrAB-TolC) (P31224 whole entry): as the sequence (P31224 whole entry) above
Sequence of H33342 efflux in E. coli AG100 (AcrAB-TolC) (P0AE06 25-397, further chain): as the sequence (P0AE06 25-397, further chain) above
Sequence of H33342 efflux in E. coli AG100 (AcrAB-TolC) (P02930 23-493, further chain): as the sequence (P02930 23-493, further chain) above

SMILES | EPI activity of authentic standard [1] | IC50 [2] | most dilute concentration with significant (p<0.05) H33342 efflux inhibition vs solvent controls [2] | inhibition of H33342 efflux vs control wells ([2]; 0.06-64 μg/mL, glucose, 37° C.) | cytotoxicity [3] | antifungal activity (fungi) | interaction by fractional inhibitory concentration index (FICI) ([4]; all antibiotics tested with the exception of piperacillin) | antibacterial activity of compound alone, concentration ([4]; all three E. coli strains overexpressing efflux pumps) | effect on H33342 fluorescence (accumulation) [5] | effect on H33342 fluorescence (accumulation) ([5]; listed as 3,4-Dibromopyrrole-2,5-dione) | concentration equal to or more effective than PAβN (15.6 μg/mL) in causing H33342 accumulation [6] | intracellular H33342 fluorescence (accumulation) [6]
Brc1[nH]c(Br)c(Br)c1Br [2,3,4,5-tetrabromopyrrole] | not to be responsible for the EPI activity |  |  |  |  |  |  |  |  |  |  | 
O=C1NC(=O)C(Br)=C1Br [3,4-dibromopyrrole-2,5-dione] |  | 3.1 µM and 3 µM | 0.06 µg/mL | near-complete inhibition | cytotoxicity | modest antifungal activity | synergistic (a FIC of <0.5 is synergistic and indicative of the presence of an efflux pump inhibitor (EPI)) | > 100 µg/mL | no effect | not | ≥ 1 µg/mL | dose-dependent increase; also recorded: increased
